Results published in the supplement of paper PMC11997997.

How the values were obtained:
[1] = test system: murine bone marrow-derived macrophages; test: area under cytotoxicity dose-response curve (AUC (% cytotoxicity x dose, relative)); higher = more cytotoxic; conditions: duration: 6 days; dose range: 0.13-80 uM, 8 points
How it was run: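 Primary murine bone marrow-derived macrophages in opaque 384-well plates were exposed to an 8-point, 2.5-fold dilution series (final 80–0.13 μM) for 6 days at 37 °C in 5% CO2. Viability was read with Promega's CellTiter-Glo luminescence assay, and percent cytotoxicity was normalised to vehicle and positive control wells. Cytotoxicity is reported as the area under the dose–response curve, calculated in GraphPad Prism version 10.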

[2] = test system: Mycobacterium tuberculosis CDC1551 (intracellular, in murine BMDM); test: area under intracellular growth-inhibition dose-response curve (AUC (% inhibition x dose, relative)); higher = more potent; conditions: duration: 6 days; dose range: 0.13-80 uM, 8 points
How it was run: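 Macrophages derived from primary murine bone marrow were infected for 1 h at multiplicity of infection 1 with luciferase-expressing M. tuberculosis CDC1551, then treated for 6 days at final concentrations of 80–0.13 μM. Bright-Glo luciferin signal, normalised to a reference drug control and the lowest-concentration wells, gave the growth readout. Area under the growth-inhibition dose–response curve was then calculated in GraphPad Prism.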

Structure (SMILES)	area under cytotoxicity dose-response curve [1]	area under intracellular growth-inhibition dose-response curve [2]
Cc1ccc(C(=O)NC2CCCCCC2)o1	< 0	263
Sc1[nH]cnc2ncnc1-2	< 0	88.6
CC(NC(=O)c1ccc(F)cc1)C1CC2CCC1C2 (stereo unspecified)	238	168
Cc1cc(Cl)ccc1NC(=S)NCC(O)c1ccccc1 (stereo unspecified)	76.6	126
Clc1ccc(-c2nnc(C3CCCCC3)o2)cc1	< 0	212
CCS(=O)(=O)N1CCN(C(=O)CCC2CCCC2)CC1	19.5	214
CC(NC(=O)c1cc([N+](=O)[O-])cc([N+](=O)[O-])c1)C1CC2CCC1C2 (stereo unspecified)	64.9	257
CC(NC(=O)c1ccccc1F)c1ccccc1 (stereo unspecified)	53.4	95.2
O=C(COc1ccccc1)N1CCN(c2ccccc2)CC1	10	122
Cc1ccc(C)c(N2CCN(CCCNC(=O)Cn3cccc3C(=O)c3ccccc3C)CC2)c1	3.91	84.4
O=C(/C=C/c1cccs1)N1CCN(Cc2ccc3c(c2)OCO3)CC1	< 0	271
COc1ccc(/C=N/NC(N)=S)cc1OC(=O)c1ccccc1	106	241
Cc1nn(Cc2ccccc2)c(Cl)c1C(=O)NCc1ccco1	16.8	104
COC(=O)C(C)NC(=S)N1CCN(c2c(F)cc3c(=O)c(C(=O)O)cn(C4CC4)c3c2OC)CC1C (stereo unspecified)	23.4	90
Br.CCCc1cc(-c2nc(-c3ccc(C)cc3)cs2)ccn1	45.6	80.7
CCOc1ccc(-c2cnc(NCc3cccc4ccccc34)n2CCOC)cc1.O=C(O)C(=O)O	23.1	66.2
O=C(CCCOc1ccc(Br)cc1)NNC(=O)c1ccncc1	24.1	256
Cn1nc(C(=O)OCC(=O)NCc2ccc(Cl)cc2)c2ccccc2c1=O	4.5	83
CC(C)CCNC(=O)CSc1nc(O)c2ccccc2n1	40.4	27.8
C=C1c2cccc(O)c2C(=O)C2C(=O)[C@]3(O)C(=O)C(C(N)=O)C(=O)[C@@H](N(C)C)[C@@H]3[C@@H](O)[C@H]12.Cl (stereo partly specified)	3.53	272
CC(C)c1ccc(NC(=O)NC2CCCCC2)cc1	66.5	185
COc1ccc(NC(=S)Nc2ccc(Oc3ccccc3)cc2)cc1	< 0	233
O=C(Nc1ccc(F)cc1)NC1CCCCCCC1	144	182
O=C1N(c2nncs2)CCN1[N+](=O)[O-]	< 0	97.8

Structure (SMILES)	area under cytotoxicity dose-response curve [1]	area under intracellular growth-inhibition dose-response curve [2]
CCCNC(=O)OCC12CC3CC(CC(C3)C1)C2	228	237
COc1ccccc1C=NNC(=O)c1ccncc1	9	266
O=[N+]([O-])c1cc(Cl)c(O)c(-[n+]2c(-c3ccccc3)cc(-c3ccccc3)cc2-c2ccccc2)c1.[O-][Cl+3]([O-])([O-])[O-]	35.3	150
Cc1cc(C(=O)NCc2cccs2)cs1	9.86	25.9
C=CCNC(=S)NNC(=O)CC12CC3CC(CC(C3)C1)C2	8.72	222
O=C(N/N=C/C=C/c1ccccc1)c1ccncc1	< 0	266
C[C@@H]1C2CC(C/C2=N\NC(=O)c2ccncc2)C1(C)C (stereo partly specified)	< 0	260
CC(=O)c1ccc(NC(=S)Nc2ccc(N3CCOCC3)cc2)cc1.Cl	40.4	260
Cc1ccc(-c2nnc(NC(=O)c3ccc([N+](=O)[O-])o3)o2)c(C)c1	91.5	78.2
Cc1cccc(-c2nsc(SCC(=O)N3CCCC3)n2)c1	98	224
CCC(=O)NC(=S)Nc1ccc(NC(=O)c2ccc(OC)cc2)cc1	< 0	266
CCOc1ccc2oc(C(=O)OCC(=O)NC3CCCCC3)c(C)c2c1	< 0	119
CCCCN(C(=O)CSc1nnc(-c2ccccc2)o1)c1c(N)n(CCC)c(=O)[nH]c1=O	< 0	65.6
NC(=S)N/N=C/c1ccc(OC(=O)c2cccnc2)cc1	48	262
Cc1ccc(S(=O)(=O)N2CCN(C(=O)c3cc(S(=O)(=O)N4CCOCC4)c(Cl)cc3Cl)CC2)cc1	21.2	75.1
CCC(C)N1CCC2(CC1)N=c1c3c(O)c4c(O)c(C)c5c(c4c1=N2)C(=O)[C@@](C)(OC=C[C@H](OC)[C@@H](C)[C@@H](OC(C)=O)[C@H](C)[C@H](O)[C@H](C)[C@@H](O)[C@@H](C)C=CC=C(C)C(=O)N3)O5 (stereo partly specified)	86.3	253
COc1ccc(OCc2n(CC(=O)OC3CC(C)CCC3C(C)C)c3ccccc3[n+]2C)cc1.[Cl-] (stereo unspecified)	58.8	139
O=C(CCC1CCCCC1)NCc1cccs1	42.9	187
O=C(COC(=O)CCCOc1ccc(Cl)cc1Cl)NCc1ccc(F)cc1	40.6	9.47
CCOc1c(Cl)cc(/C=N/NC(N)=S)cc1OC	< 0	266
COc1ccc(CNc2nc3nc4c(c(O)n3n2)CCC4)cc1	15.2	140
O=C(Nc1ccc(Br)cc1)NC1CCCCCCC1	26.1	263
CCc1ccc(C(=O)/C=C/c2ccc([N+](=O)[O-])o2)cc1	5.66	142
CCC(=O)NC(=S)Nc1ccc(N2CCN(C(=O)c3ccc(Cl)cc3)CC2)cc1	3.79	269
